For 7 molecules, EC50 and CC50 results are on record in US9180193B2, “Antiviral compounds” (Hoffmann-La Roche Inc., priority 2011, dated 2015).

pEC50: −log10 of the molar value.

The test system of the first data set is GT-1a pRLuc H77 1b 75 SI subgenomic replicon cell line (Huh7). The experiment in a line: HCV GT-1a replicon luciferase reporter assay. In kind it is cell-based. The note with it: Hepatitis C virus, GT1A, Huh-7; Renilla luciferase reporter read 72 hours after compound addition; GT-1a H77 replicon cells. The text has this: Determination of compounds HCV GT1b inhibitory replicon activity using the replicon luciferase reporter assay
The 2209-23 cell line was developed at Roche by stable transfection of the hepatoma cell line Huh-7 with a GT-1b Con1 subgenomic bicistronic replicon as previously described. Subgenomic replicon cell line was established in cured Huh7 cells, obtained from R. Bartenschlager (J Virol. 2003 March; 77 (5):3007-19) The GT-1a H77 subgenomic replicon vector pRLuc H77 lb 75 SI, was created by replacing the non structural region of the GT-1b Con1 subgenomic replicon by the one of the H77 strain, except for the first 75 amino acids of the NS3 protein that are from GT-1b Con1 strain. (J Virol. 2001 77:5352-59) The GT-1a pRLuc H77 1b 75 SI subgenomic replicon cell line was established in cured Huh7 cells, obtained from R. Bartenschlager. (J Virol. 2003 March; 77 (5):3007-19)
All the subgenomic replicon cell lines were cultured in Dulbecco's Modified Eagle Medium (DMEM-Glutamax™-I; Invitrogen Cat #10569-010). The medium was supplemented with 10% Fetal Bovine Serum (Invitrogen Cat #10082-147), 1% penicillin/streptomycin (Mediatech Cat #30-002-CI) and 500 μg/ml of G418 (Mediatech Cat #30-234-CI). Cells were maintained at 37° C. in a humidified 5% CO2 atmosphere.
2209-23 cells were plated at a cell density of 5000 cells per well in 96 well plates (Becton Dickinson, Cat #35 3296). Cells were plated in 90 μl of Dulbecco's Modified Eagle Medium (DMEM-Glutamax™-I), (Invitrogen Cat #10569-010) medium was supplemented with 5% Fetal Bovine Serum (Invitrogen Cat #10082-147), 1% penicillin/streptomycin (Mediatech Cat #30-002-CI). The pRluc H77 1b 75 SI cells were plated in 96-well plate at 3000 cells/well in DMEM-Glutamax™-I containing 5% FBS and 1% penicillin/streptomycin in 90 μl final volume. Cells were allowed to equilibrate for 24 hours at 37° C. and 5% CO2 at which time compounds were added. Compounds (or medium as a control) were added 24 hours post-plating in 3 fold dilutions at a final DMSO concentration of 1% in 10 ul volume. Renilla luciferase reporter signal was read 72 hours after addition of compounds using the Renilla Luciferase Assay System (Promega, cat # E2820). EC50 values were defined as the compound concentration at which a 50% reduction in the levels of renilla luciferase reporter was observed as compared to control samples in the absence of compound and was determined by non-linear fitting of compound dose-response data. The EC50 was approximated if maximum percentage inhibition was less than 90% and more than 70%.
For the molecule `COC(=O)N[C@H]1CCC(=O)N2CCC[C@@H](c3ncc(-c4ccc(-c5ccc(-c6cnc([C@@H]7CCCN7C(=O)[C@@H](NC(=O)OC)C(C)C)[nH]6)cc5)cc4)[nH]3)N2C1=O` [Compound I-7, {(4S,7S)-4-[5-(4′-{2-[(S)-1-((S)-2-Methoxycarbonylamino-3-methyl-butyryl)-pyrrolidin-2-yl]-3H-imidazol-4-yl}-biphenyl-4-yl)-1H-imidazol-2-yl]-6,10-dioxo-octahydro-pyridazino[1,2-a][1,2]diazepin-7-yl}-carbamic acid methyl ester], the pEC50 – broadly, −log10 of the EC50, conventionally taken in molar units – is 8.96.
Take `COC(=O)N[C@H]1CCC(=O)N2CCC[C@@H](c3ncc(-c4ccc(-c5ccc(-c6cnc([C@@H]7CC(F)(F)CN7C(=O)[C@@H](NC(=O)OC)C(C)C)[nH]6)cc5)cc4)[nH]3)N2C1=O` [Compound I-5, {(4S,7S)-4-[5-(4′-{2-[(S)-4,4-Difluoro-1-((S)-2-methoxycarbonylamino-3-methyl-butyryl)-pyrrolidin-2-yl]-3H-imidazol-4-yl}-biphenyl-4-yl)-1H-imidazol-2-yl]-6,10-dioxo-octahydro-pyridazino[1,2-a][1,2]diazepin-7-yl}-carbamic acid methyl ester]: the pEC50 is 9.04.
Same read-out and setting: to `COC(=O)N[C@H](C(=O)N1CCC[C@H]1c1ncc(-c2ccc(-c3ccc(-c4cnc([C@@H]5CCCN6C(=O)CC[C@H](NC(=O)OCc7ccccc7)C(=O)N56)[nH]4)cc3)cc2)[nH]1)C(C)C` [Compound I-3, {(4S,7S)-4-[5-(4′-{2-[(S)-1-((S)-2-Methoxycarbonylamino-3-methyl-butyryl)-pyrrolidin-2-yl]-3H-imidazol-4-yl}-biphenyl-4-yl)-1H-imidazol-2-yl]-6,10-dioxo-octahydro-pyridazino[1,2-a][1,2]diazepin-7-yl}-carbamic acid benzyl ester] belongs 8.53.
As for `COC(=O)N[C@H]1CCC(=O)N2CCC[C@@H](c3ncc(-c4ccc(-c5ccc(-c6cnc([C@@H]7CCCN8C(=O)CC[C@H](NC(=O)OC)C(=O)N78)[nH]6)cc5)cc4)[nH]3)N2C1=O` [Compound I-1, [(4S,7S)-4-(5-{4′-[2-((1S,9S)-9-[(Methoxycarbonyl)amino]-6,10-dioxo-octahydro-pyridazino[1,2-a][1,2]diazepin-1-yl)-3H-imidazol-4-yl]-biphenyl-4-yl}-1H-imidazol-2-yl)-6,10-dioxo-octahydro-pyridazino[1,2-a][1,2]diazepin-7-yl]-carbamic acid methyl ester], the pEC50 is 7.97.
Turning to `COC(=O)N[C@H]1CCC(=O)N2CCC[C@@H](c3ncc(-c4ccc(-c5cnc6cc(-c7cnc([C@@H]8CCCN8C(=O)[C@@H](NC(=O)OC)C(C)C)[nH]7)ccc6n5)cc4)[nH]3)N2C1=O` [Compound I-4, ((4S,7S)-4-{5-[4-(6-{2-[(S)-1-((S)-2-Methoxycarbonylamino-3-methyl-butyryl)-pyrrolidin-2-yl]-3H-imidazol-4-yl}-quinoxalin-2-yl)-phenyl]-1H-imidazol-2-yl}-6,10-dioxo-octahydro-pyridazino[1,2-a][1,2]diazepin-7-yl)-carbamic acid methyl ester], the pEC50 was 9.89.
The molecule `COC(=O)N[C@H]1CCC(=O)N2CCC[C@@H](c3ncc(-c4ccc(-c5ccc(-c6cnc(C7CC8(CCOCC8)CN7C(=O)[C@@H](NC(=O)OC)C(C)C)[nH]6)cc5)cc4)[nH]3)N2C1=O` (stereo partly drawn) [Compound I-6, {(4S,7S)-4-[5-(4′-{2-[2-((S)-2-Methoxycarbonylamino-3-methyl-butyryl)-8-oxa-2-aza-spiro[4.5]dec-3-yl]-3H-imidazol-4-yl}-biphenyl-4-yl)-1H-imidazol-2-yl]-6,10-dioxo-octahydro-pyridazino[1,2-a][1,2]diazepin-7-yl}-carbamic acid methyl ester] showed a pEC50 of 8.82. This pEC50 lies 1.07 log units lower than the previous one.
Molecule `COC(=O)N[C@H]1CCC(=O)N2CCC[C@@H](c3nc4cc(-c5ccc(-c6cnc([C@@H]7CCCN7C(=O)[C@@H](NC(=O)OC)C(C)C)[nH]6)cc5)ccc4[nH]3)N2C1=O` [Compound I-2, {(4S,7S)-4-[5-(4-{2-[(S)-1-((S)-2-Methoxycarbonylamino-3-methyl-butyryl)-pyrrolidin-2-yl]-3H-imidazol-4-yl}-phenyl)-1H-benzoimidazol-2-yl]-6,10-dioxo-octahydro-pyridazino[1,2-a][1,2]diazepin-7-yl}-carbamic acid methyl ester] showed a pEC50 of 6.81.

Tested on in a further data set: not listed separately
The experiment in a line: in vitro. In kind it is cell-based. The note with it: human. The procedure: Determination of Compounds Cytotoxicity Using the HCV GT1b Replicon Cell Line Measuring WST1.
2209-23 cells were plated at a cell density of 5000 cells per well in clear flat-bottom 96 well plate (Becton Dickinson, Cat #35 3075) for cell viability studies. The WST-1 cell proliferation assay (Roche Diagnostic, Cat#11644807001) was used to determine cell viability. Assay plates were set up in the same format as in the replicon assay. After 3 days of compound incubation 10 μl of WST-1 reagent was added to each well for 2 hours at 37° C. and 5% CO2, following manufacturer's instructions. Absorption reading at 450 nm (reference filter at 650 nm) was determined using MRX Revelation microtiter plate reader (Lab System). CC50 values were defined as the compound concentration required for reducing cell viability by 50% as compared to the untreated control in absence of compound and was determined by non-linear fitting of compound dose-response data. Representative assay data can be found in Table II below: […]
As to `COC(=O)N[C@H]1CCC(=O)N2CCC[C@@H](c3ncc(-c4ccc(-c5cnc6cc(-c7cnc([C@@H]8CCCN8C(=O)[C@@H](NC(=O)OC)C(C)C)[nH]7)ccc6n5)cc4)[nH]3)N2C1=O` [Compound I-4, ((4S,7S)-4-{5-[4-(6-{2-[(S)-1-((S)-2-Methoxycarbonylamino-3-methyl-butyryl)-pyrrolidin-2-yl]-3H-imidazol-4-yl}-quinoxalin-2-yl)-phenyl]-1H-imidazol-2-yl}-6,10-dioxo-octahydro-pyridazino[1,2-a][1,2]diazepin-7-yl)-carbamic acid methyl ester], the CC50 (in general, the concentration that lowers cell viability or growth by half) at 3 days worked out at 8160 nM.
